Source: paper PMC3277506, “Extra-Renal Elimination of Uric Acid via Intestinal Efflux Transporter BCRP/ABCG2” (PLoS ONE, 2012)
Like-named read-outs stand apart in the source and are kept apart here.

Experiments:
hMRP2 = biological target: T1, hMRP2 (Homo sapiens, UniProt Q92887); assay: [14C]uric acid uptake by hMRP2-expressing membrane vesicles; type: biochemical; settings: [14C]uric acid 20 µM, 5 min, 37°C, 4 mM ATP or AMP
T1 construct: purchased GenoMembrane Inc. (Yokohama, Japan); host or cells: Sf9 cells
T1 sequence (Q92887 whole entry): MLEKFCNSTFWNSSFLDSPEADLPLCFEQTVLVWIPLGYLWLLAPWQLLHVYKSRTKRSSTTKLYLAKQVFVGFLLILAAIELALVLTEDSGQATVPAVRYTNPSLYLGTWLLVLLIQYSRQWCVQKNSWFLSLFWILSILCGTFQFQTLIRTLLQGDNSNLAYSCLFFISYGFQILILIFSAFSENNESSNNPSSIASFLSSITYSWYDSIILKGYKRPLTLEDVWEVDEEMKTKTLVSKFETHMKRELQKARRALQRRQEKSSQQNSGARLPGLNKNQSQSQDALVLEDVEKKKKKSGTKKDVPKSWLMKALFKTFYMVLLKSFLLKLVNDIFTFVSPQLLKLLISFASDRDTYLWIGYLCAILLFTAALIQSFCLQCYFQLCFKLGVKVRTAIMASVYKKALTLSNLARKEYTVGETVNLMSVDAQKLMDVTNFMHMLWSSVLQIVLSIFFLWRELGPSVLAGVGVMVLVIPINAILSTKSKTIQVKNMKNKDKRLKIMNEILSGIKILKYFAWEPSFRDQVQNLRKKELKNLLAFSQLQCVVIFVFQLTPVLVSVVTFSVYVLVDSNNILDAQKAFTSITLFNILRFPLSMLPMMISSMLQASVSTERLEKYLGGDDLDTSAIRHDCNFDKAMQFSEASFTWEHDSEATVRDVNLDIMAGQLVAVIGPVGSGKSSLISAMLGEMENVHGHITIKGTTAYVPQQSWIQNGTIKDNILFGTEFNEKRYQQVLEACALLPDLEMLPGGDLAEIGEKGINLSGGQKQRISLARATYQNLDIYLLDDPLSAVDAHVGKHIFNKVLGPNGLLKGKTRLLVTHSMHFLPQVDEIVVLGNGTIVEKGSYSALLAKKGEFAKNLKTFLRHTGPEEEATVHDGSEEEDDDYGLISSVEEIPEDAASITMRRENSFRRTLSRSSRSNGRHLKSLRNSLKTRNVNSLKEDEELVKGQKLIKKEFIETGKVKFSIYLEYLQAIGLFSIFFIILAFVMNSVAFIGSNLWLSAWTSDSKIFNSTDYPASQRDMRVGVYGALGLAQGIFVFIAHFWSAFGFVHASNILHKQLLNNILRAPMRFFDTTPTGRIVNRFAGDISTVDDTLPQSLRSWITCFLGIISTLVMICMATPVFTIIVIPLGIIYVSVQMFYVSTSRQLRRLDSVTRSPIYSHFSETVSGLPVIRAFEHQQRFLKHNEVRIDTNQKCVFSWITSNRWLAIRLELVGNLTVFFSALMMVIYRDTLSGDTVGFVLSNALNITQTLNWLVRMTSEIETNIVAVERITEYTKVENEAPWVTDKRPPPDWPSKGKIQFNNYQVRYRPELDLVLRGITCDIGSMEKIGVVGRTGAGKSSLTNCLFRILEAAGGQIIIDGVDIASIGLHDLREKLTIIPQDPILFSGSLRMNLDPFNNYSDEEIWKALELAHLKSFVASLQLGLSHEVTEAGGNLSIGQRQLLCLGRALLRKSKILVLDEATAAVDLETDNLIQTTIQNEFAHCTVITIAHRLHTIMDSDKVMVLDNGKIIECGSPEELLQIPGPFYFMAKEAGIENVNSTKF
Method: (§1) hBCRP/rBcrp, hMRP2/rMrp2, or hMDR1-expressing membrane vesicles prepared from Sf9 cells were purchased from GenoMembrane Inc. (Yokohama, Japan). Uptake experiments were conducted as described previously. Briefly, after a pre-incubation for 5 min at 37°C, membrane vesicles (50 µg protein/50 µL final reaction volume) were incubated for 5 min at 37°C in the presence of 4 mM ATP or AMP in assay buffer (1 M KCl, 1 M MgCl2, and 100 mM MOPS-Tris, pH 7.0) containing [^14C]uric acid (1 µCi/mL). The uptake reaction was terminated by adding 1 mL ice-cold washing buffer (1 M KCl, and 100 mM MOPS-Tris, pH 7.0) to the membrane solution, and the mixture was rapidly filtered through a nitrocellulose filter (0.45 µm pore size, Millipore, Bedford, MA). The filters were washed twice with 5 mL ice-cold washing buffer. The filters were dried and dissolved in Clearsol-I for quantitation of radioactivity.

hMDR1 = biological target: T2, hMDR1 (Homo sapiens, UniProt P08183); assay: [14C]uric acid uptake by hMDR1-expressing membrane vesicles; type: biochemical; settings: [14C]uric acid 20 µM, 5 min, 37°C, 4 mM ATP or AMP
T2 construct: purchased GenoMembrane Inc. (Yokohama, Japan); host or cells: Sf9 cells
T2 sequence (P08183 whole entry): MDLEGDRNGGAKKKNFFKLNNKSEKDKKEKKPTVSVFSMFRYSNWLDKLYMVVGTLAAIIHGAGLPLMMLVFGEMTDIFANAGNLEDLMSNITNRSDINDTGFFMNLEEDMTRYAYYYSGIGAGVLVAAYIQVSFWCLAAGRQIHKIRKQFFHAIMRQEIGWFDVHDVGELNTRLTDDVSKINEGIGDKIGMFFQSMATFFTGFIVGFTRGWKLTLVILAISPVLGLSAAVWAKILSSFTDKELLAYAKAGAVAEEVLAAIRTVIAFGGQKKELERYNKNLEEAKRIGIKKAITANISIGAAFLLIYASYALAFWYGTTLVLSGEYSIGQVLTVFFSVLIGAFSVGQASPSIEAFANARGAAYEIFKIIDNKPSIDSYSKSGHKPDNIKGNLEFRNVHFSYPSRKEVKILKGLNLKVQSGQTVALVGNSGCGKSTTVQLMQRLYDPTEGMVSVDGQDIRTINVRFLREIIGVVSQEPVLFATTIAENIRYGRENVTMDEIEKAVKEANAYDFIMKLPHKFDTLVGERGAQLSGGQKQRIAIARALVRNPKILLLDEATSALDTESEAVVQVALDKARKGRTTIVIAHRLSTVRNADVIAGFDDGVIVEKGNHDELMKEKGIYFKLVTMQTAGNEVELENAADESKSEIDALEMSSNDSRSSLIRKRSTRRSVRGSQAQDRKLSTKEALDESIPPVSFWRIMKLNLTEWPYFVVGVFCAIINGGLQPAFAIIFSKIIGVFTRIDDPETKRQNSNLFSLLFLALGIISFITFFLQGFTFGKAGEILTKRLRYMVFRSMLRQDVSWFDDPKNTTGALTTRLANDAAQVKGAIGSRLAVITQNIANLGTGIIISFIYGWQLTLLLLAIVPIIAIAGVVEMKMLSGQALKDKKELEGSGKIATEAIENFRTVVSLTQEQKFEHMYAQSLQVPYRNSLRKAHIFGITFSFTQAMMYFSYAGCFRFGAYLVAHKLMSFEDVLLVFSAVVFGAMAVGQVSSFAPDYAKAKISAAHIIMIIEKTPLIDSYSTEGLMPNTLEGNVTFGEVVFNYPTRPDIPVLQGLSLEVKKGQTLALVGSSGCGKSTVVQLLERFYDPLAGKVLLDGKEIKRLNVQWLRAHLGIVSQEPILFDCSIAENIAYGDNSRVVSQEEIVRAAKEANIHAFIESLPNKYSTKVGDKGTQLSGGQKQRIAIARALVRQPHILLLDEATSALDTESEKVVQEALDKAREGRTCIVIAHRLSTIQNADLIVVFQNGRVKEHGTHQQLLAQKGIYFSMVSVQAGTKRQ
Method: as §1

[1] = Intestinal secretion of endogenous uric acid, in situ intestinal closed loop method, oxonate-treated rats; type: in vivo, rat; settings: 60 min, no inhibitor
Method: We evaluated intestinal secretion of endogenous uric acid according to the method described previously, with some modifications. Rats were anesthetized with 50% urethane and treated with oxonate by the same method as in the in vivo animal study described above. Intestinal closed loops were made at different segments: jejunum (10 cm), ileum (10 cm), and colon (3–5 cm). Phosphate-buffered solution (PB, 0.075 M NaH2PO4 - 0.075 M Na2HPO4, pH 6.5) or inhibitor-containing PB was injected into the intestinal loop. After 60 min, the remaining luminal content in each loop was washed out and collected for quantitation. Blood was obtained from the jugular vein at 1, 20, 40 and 60 min. Plasma was obtained by centrifugation and used for quantitation.
The following equation was used to calculate intestinal secretory clearance (µL/min/cm loop) and estimated total intestinal secretory clearance (CLintestine, estimated) (mL/min): [drawing 1] [drawing 2] [drawing 3] where A is the amount of uric acid secreted into the intestinal lumen of each loop for 60 min, L is the length of the intestine, and AUC is area under the plasma concentration-time curve.

rBcrp = biological target: T3, rBcrp (Rattus norvegicus, UniProt Q80W57); assay: [14C]uric acid uptake by rBcrp-expressing membrane vesicles; type: biochemical; design: purchased GenoMembrane Inc. (Yokohama, Japan); host or cells: Sf9 cells
T3 sequence (Q80W57 1-657): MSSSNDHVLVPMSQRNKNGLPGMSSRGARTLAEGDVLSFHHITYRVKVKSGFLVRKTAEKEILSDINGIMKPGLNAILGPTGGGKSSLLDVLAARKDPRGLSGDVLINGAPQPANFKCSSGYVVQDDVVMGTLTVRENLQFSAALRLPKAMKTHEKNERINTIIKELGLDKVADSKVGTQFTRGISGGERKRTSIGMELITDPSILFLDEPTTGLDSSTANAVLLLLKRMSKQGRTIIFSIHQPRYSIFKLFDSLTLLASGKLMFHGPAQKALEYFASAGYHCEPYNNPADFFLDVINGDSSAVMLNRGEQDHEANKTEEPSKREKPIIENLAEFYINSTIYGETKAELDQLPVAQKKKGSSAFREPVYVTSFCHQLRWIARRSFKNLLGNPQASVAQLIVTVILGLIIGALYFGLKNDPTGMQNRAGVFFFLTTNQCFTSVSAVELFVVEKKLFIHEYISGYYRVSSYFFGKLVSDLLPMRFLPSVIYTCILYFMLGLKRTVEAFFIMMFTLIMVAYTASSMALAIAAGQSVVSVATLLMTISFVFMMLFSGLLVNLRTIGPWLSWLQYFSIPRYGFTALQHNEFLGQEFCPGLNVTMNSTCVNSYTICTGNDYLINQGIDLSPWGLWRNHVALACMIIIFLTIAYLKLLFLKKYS
Method: as §1

rMdr1a = biological target: T4, rMdr1a (Rattus norvegicus, UniProt Q6PSM0); assay: Bidirectional transport of uric acid in LLC-PK1 cells expressing rMdr1a; type: in vitro ADME; settings: data not shown
T4 construct: expressed in transfected cells; host or cells: LLC-PK1 cells
T4 sequence (Q6PSM0 1-1272): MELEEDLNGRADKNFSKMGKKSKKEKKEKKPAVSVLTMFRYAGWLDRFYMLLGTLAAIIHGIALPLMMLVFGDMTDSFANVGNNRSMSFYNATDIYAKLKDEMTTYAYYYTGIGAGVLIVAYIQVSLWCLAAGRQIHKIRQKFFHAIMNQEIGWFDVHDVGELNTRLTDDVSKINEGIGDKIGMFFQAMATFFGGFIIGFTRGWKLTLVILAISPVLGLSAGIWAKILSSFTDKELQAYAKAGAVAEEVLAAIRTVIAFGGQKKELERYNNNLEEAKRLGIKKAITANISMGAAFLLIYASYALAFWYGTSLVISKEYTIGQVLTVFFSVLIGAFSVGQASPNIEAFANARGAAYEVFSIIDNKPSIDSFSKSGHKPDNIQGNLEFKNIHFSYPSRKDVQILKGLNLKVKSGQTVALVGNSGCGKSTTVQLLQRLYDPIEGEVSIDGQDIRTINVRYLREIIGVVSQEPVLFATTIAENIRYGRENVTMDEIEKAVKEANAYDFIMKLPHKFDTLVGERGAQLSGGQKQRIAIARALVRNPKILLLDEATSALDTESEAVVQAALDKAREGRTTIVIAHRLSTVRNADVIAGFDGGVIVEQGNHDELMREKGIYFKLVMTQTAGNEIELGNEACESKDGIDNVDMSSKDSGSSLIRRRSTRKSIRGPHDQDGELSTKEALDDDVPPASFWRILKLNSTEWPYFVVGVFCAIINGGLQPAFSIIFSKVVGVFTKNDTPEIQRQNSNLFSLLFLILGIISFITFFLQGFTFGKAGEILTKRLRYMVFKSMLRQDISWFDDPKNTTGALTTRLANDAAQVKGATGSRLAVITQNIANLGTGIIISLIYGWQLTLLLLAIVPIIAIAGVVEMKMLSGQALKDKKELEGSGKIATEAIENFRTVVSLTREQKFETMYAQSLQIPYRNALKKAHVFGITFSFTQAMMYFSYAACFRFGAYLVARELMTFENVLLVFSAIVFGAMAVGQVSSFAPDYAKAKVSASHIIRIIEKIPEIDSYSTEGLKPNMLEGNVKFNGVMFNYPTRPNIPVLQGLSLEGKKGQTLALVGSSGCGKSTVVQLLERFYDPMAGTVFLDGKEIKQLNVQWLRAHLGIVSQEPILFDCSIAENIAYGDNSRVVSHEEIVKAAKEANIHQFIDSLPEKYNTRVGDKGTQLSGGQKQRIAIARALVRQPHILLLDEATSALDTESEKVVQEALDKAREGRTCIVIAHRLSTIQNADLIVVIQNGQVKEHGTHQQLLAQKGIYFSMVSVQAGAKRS

[2] = Recovery of [14C]uric acid after intravenous administration in oxonate-treated rats; type: in vivo; settings: percentage of dose; for dose excreted: male, Wistar, rat, iv, 2 µCi/rat
Method: Male Wistar rats (280±30 g body weight) used in the present study were treated with potassium oxonate, a uric acid oxidase (uricase) inhibitor. Oxonate-treated rats were established as described previously, [48]. Briefly, rats were anesthetized with 50% urethane (2 mL/kg) and infused with 0.9% NaCl, 0.5% oxonate and 4% mannitol solution from the femoral vein at the flow rate of 3 mL/hr. As a bolus, 0.9% NaCl, 1.5% oxonate and 4% mannitol solution was administered from the jugular vein at 6 mL/kg. After equilibration for 80 min, blood, urine and bile samples were collected at 20-min intervals. When [^14C]uric acid (2 µCi/rat) was used, it was intravenously injected from the jugular vein after oxonate treatment for 80 min. In order to suppress the uricolysis of [^14C]uric acid by intestinal flora, animals received orally non-absorbed antibiotics, polymyxin B, kanamycin, and vancomycin at daily doses of 50, 50 and 20 mg/kg, respectively, for 7 days before this animal study. Urine and bile were collected at 20-min intervals, and blood samples were drawn at 1, 5, 10, 20, 40, 60, 80, 100 and 120 min. Urine and bile were collected from bladder and bile ducts, respectively, and blood from the jugular vein. In mice, urine was collected for 24 hours by using metabolic cages (Natsume, Tokyo, Japan).

O=c1[nH]c(=O)c2[nH]c(=O)[nH]c2[nH]1 [uric acid]
ATP-dependent uric acid uptake (hMRP2): inactive
ATP-dependent uric acid uptake (hMDR1): inactive
Intestinal secretion clearance of endogenous uric acid ([1]; colon closed loop): 0.76±0.17 µL/min/cm loop
Intestinal secretion clearance of endogenous uric acid ([1]; ileum closed loop): 1.58±0.13 µL/min/cm loop
Intestinal secretion clearance of endogenous uric acid ([1]; jejunum closed loop): 0.49±0.03 µL/min/cm loop
Vmax of uric acid transport by rBcrp (rBcrp; ATP-dependent uptake, maximum uric acid concentration 5 mM): 67.3±4.21 nmol/5 min/mg protein
Uptake of uric acid in the presence of ATP versus AMP (rBcrp; [14C]uric acid 20 µM, 5 min, 37°C, 4 mM ATP or AMP): significantly higher
Secretory versus absorptive transport of uric acid (rMdr1a): no significant difference
dose excreted ([2]; bile + intestine, up to 120 min, read-out: Recovery of [14C]uric acid, Bile+Intestine): 9.58%
dose excreted ([2]; bile, up to 120 min, read-out: Recovery of [14C]uric acid, Bile): 0.68%
dose excreted ([2]; urine, up to 120 min, read-out: Recovery of [14C]uric acid, Urine): 42.6%
Recovery of [14C]uric acid, Cp×Vd (remaining in the body) ([2]; iv 2 µCi/rat, 2 hrs after administration, rough estimation from distribution volume and plasma concentration): 4.55%
Recovery of [14C]uric acid, Intestine (luminal contents) ([2]; iv 2 µCi/rat, up to 120 min): 8.90%
Recovery of [14C]uric acid, Urine ([2]; iv 2 µCi/rat, up to 120 min): 42.58%
